Numbered stars: 1 amine (or outer) side, 2 acyl side, 3 side chain; on linkers, the order of the positions; unused ones are H or OH. Bridge positions count the residues as written; N and C are the ends. Square brackets hold non-standard residues; d marks the D form. Peptide text beside a SMILES is read from it. * marks the point of attachment. Phe(3-CH2NH2) = O=C([C@H](Cc1cccc(CN[*:3])c1)N[*:1])[*:2]; Phe(2-CONH2) = NC(=O)c1ccccc1C[C@H](N)C(=O)O; X5 = O=C([C@H](Cc1ccc(CO)cc1)N[*:1])[*:2]; Triazol3yl(1,2,4-5-NH2) = Nc1nc(*)n[nH]1; Phe(4-NH2) = Nc1ccc(C[C@H](N)C(=O)O)cc1; X16 = CCN(CC)CC[C@H](N[*:1])C(=O)[*:2]; Picolinoyl(5-F) = O=C(c1ccc(F)cn1)*; Orn(iPr) = CC(C)NCCC[C@H](N)C(=O)O; Benzoyl(4-F) = O=C(c1ccc(F)cc1)*; Oxazole2carbonyl = O=C(c1ncco1)*; 3Pal = N[C@@H](Cc1cccnc1)C(=O)O; Agp = N=C(N)NC[C@H](N)C(=O)O; Picolinoyl = O=C(c1ccccn1)*; ΔPro = O=C(O)[C@@H]1C=CCN1; Dab = NCC[C@H](N)C(=O)O; X11 = O=C(c1ncccc1Cl)*; X6 = O=C(c1ccncn1)*
Legend:
[1] = target: T1, hCGRP receptor (CALCRL:RAMP1) (Homo sapiens, UniProt O60894+Q16602); experiment: CGRP receptor antagonist activity measured by cAMP assay (HTRF); assay type: cell-based; details: agonist human α-CGRP; for Emax: % MPE: percent of the maximal possible effect, read-out: hCGRP-R Efficacy Antag (%) Ave; for IC50: GeneBLAzer CALCRL:RAMP1-CRE-bla Freestyle 293F cells, 30 minutes, read-out: hCGRP-R IC50 Ave
T1 construct: host or cells: GeneBLAzer CALCRL:RAMP1-CRE-bla Freestyle 293F
T1 sequence (Q16602 23-461): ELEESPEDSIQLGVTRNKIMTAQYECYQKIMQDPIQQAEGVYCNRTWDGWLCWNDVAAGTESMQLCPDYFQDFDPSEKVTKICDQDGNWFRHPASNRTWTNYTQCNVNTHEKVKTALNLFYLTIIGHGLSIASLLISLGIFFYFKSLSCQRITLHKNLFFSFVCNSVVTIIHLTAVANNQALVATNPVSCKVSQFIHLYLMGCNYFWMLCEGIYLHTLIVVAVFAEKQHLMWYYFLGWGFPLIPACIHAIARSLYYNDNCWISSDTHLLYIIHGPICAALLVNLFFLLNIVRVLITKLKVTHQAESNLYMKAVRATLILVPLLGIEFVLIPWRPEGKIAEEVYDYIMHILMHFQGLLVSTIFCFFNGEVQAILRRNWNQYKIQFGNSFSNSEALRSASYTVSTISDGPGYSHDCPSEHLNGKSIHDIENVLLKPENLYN
T1 sequence (O60894 27-148): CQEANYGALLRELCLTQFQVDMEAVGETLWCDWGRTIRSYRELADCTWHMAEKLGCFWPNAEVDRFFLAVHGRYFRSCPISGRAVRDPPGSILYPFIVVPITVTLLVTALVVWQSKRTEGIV

[2] = target: T2, hAM2 receptor (CALCRL:RAMP3) (Homo sapiens, UniProt O60896+Q16602); experiment: AM2 receptor antagonist activity measured by cAMP assay (HTRF); assay type: cell-based; details: for Emax: % MPE: percent of the maximal possible effect, read-out: hAM2-R Efficacy Antag (%) Ave; for Emax / IC50: agonist human adrenomedullin; for IC50: GeneBLAzer CALCRL:RAMP3-CRE-bla Freestyle 293F cells, read-out: hAM2-R IC50 Ave; for selectivity ratio CGRP/AM2: selectivity ratio for hCGRP over hAM2, calculated from the IC50 values
T2 construct: expressed in transfected cells; host or cells: GeneBLAzer CALCRL:RAMP3-CRE-bla Freestyle 293F
T2 sequence (Q16602 23-461): as the sequence (Q16602 23-461) above
T2 sequence (O60896 24-148): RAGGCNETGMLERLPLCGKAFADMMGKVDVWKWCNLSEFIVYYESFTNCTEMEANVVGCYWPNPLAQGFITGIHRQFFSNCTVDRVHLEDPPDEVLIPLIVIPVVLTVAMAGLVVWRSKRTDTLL

| SMILES | Emax [1] [%] | Emax [2] [%] | IC50 [1] [nM] | IC50 [2] [nM] | selectivity ratio CGRP/AM2 [2] |
| --- | --- | --- | --- | --- | --- |
| CC(C)[C@@H]1NC(=O)[C@H](CC(=O)O)NC(=O)[C@H](CCNc2nc(N)n[nH]2)NC(=O)[C@@H](NC(=O)[C@H](Cc2ccccc2C(N)=O)NC(=O)[C@H](NC(=O)c2ncco2)C(C)C)CSSC[C@@H](C(=O)N[C@@H](Cc2cccnc2)C(N)=O)NC(=O)[C@H](Cc2cccnc2)NC(=O)[C@@H]2CCCN2C(=O)CNC1=O [Compound 42, Oxazole-2-carbonyl-D-Val-Phe(2-Cbm)-c(Cys-Dab(Atz)-Asp-Val-Gly-Pro-3Pal-Cys)-3Pal-NH2] (Oxazole2carbonyl-[dV][Phe(2-CONH2)]C[Dab](Triazol3yl(1,2,4-5-NH2))DVGP[3Pal]C[3Pal]-NH2; disulfide 3-10) | 100 | 97 | – | – | – |
| CC(C)NCCC[C@@H]1NC(=O)[C@@H](NC(=O)[C@H](Cc2ccc(O)cc2)NC(=O)[C@H](NC(=O)c2ccccn2)C(C)C)CSSC[C@@H](C(=O)N[C@@H](Cc2cccnc2)C(N)=O)NC(=O)[C@H](Cc2ccc(CO)cc2)NC(=O)[C@@H]2CCCN2C(=O)CNC(=O)[C@H](C(C)C)NC(=O)[C@H](CC(=O)O)NC1=O [Compound 55, Picolinoyl-D-Val-Tyr-c(Cys-Orn(iPr)-Asp-Val-Gly-Pro-Phe(4-CH2OH)-Cys)-3Pal-NH2] (Picolinoyl-[dV]YC[Orn(iPr)]DVGP[X5]C[3Pal]-NH2; disulfide 3-10) | 100 | 100 | 0.18 | 137 | 746 |
| CC(C)[C@@H]1NC(=O)[C@H](CC(=O)O)NC(=O)[C@H](CCCNC(=N)N)NC(=O)[C@@H](NC(=O)[C@H](Cc2ccc(O)cc2)NC(=O)[C@H](NC(=O)c2ncccc2Cl)C(C)C)CSSC[C@@H](C(=O)N[C@@H](Cc2cccnc2)C(N)=O)NC(=O)[C@H](Cc2ccccc2)NC(=O)[C@@H]2CCCN2C(=O)CNC1=O [Compound 51] (X11-[dV]YCRDVGPFC[3Pal]-NH2; disulfide 3-10) | 100 | 100 | 0.14 | 13 | 92 |
| CCN(CC)CC[C@@H]1NC(=O)[C@@H](NC(=O)[C@H](Cc2ccc(O)cc2)NC(=O)[C@H](NC(=O)c2ccccn2)C(C)C)CSSC[C@@H](C(=O)N[C@@H](Cc2cccnc2)C(N)=O)NC(=O)[C@H](Cc2ccccc2)NC(=O)[C@@H]2CCCN2C(=O)CNC(=O)[C@H](C(C)C)NC(=O)[C@H](CC(=O)O)NC1=O [Compound 8, Picolinoyl-D-Val-Tyr-c(Cys-Dab(Et2)-Asp-Val-Gly-Pro-Phe-Cys)-3Pal-NH2] (Picolinoyl-[dV]YC[X16]DVGPFC[3Pal]-NH2; disulfide 3-10) | 100 | 100 | 0.09 | 30 | 347 |
| CC(C)NCCC[C@@H]1NC(=O)[C@@H](NC(=O)[C@H](Cc2ccc(O)cc2)NC(=O)[C@H](NC(=O)c2ccc(F)cn2)C(C)C)CSSC[C@@H](C(=O)N[C@@H](Cc2cccnc2)C(N)=O)NC(=O)[C@H](Cc2ccccc2)NC(=O)[C@@H]2CCCN2C(=O)CNC(=O)[C@H](C(C)C)NC(=O)[C@H](CC(=O)O)NC1=O [Compound 14, Picolinoyl(5-F)-D-Val-Tyr-c(Cys-Orn(iPr)-Asp-Val-Gly-Pro-Phe-Cys)-3Pal-NH2] ({Picolinoyl(5-F)}-[dV]YC[Orn(iPr)]DVGPFC[3Pal]-NH2; disulfide 3-10) | 100 | 100 | 0.12 | 20 | 167 |
| CC(C)[C@@H]1NC(=O)[C@H](CC(=O)O)NC(=O)[C@H](CNC(=N)N)NC(=O)[C@@H](NC(=O)[C@H](Cc2ccc(O)cc2)NC(=O)[C@H](NC(=O)c2ccc(F)cc2)C(C)C)CSSC[C@@H](C(=O)N[C@@H](Cc2cccnc2)C(N)=O)NC(=O)[C@H](Cc2ccccc2)NC(=O)[C@@H]2CCCN2C(=O)CNC1=O [Ref. Cpd. 1, Bz(4-F)-D-Val-Tyr-c(Cys-Agp-Asp-Val-Gly-Pro-Phe-Cys)-3Pal-NH2, reference compound] ({Benzoyl(4-F)}-[dV]YC[Agp]DVGPFC[3Pal]-NH2; disulfide 3-10) | 100 | 98 | – | – | – |
| CC(C)NCCC[C@@H]1NC(=O)[C@@H](NC(=O)[C@H](Cc2ccccc2C(N)=O)NC(=O)[C@H](NC(=O)c2ncco2)C(C)C)CSSC[C@@H](C(=O)N[C@@H](Cc2cccnc2)C(N)=O)NC(=O)[C@H](Cc2ccc(N)cc2)NC(=O)[C@@H]2C=CCN2C(=O)CNC(=O)[C@H](C(C)C)NC(=O)[C@H](CC(=O)O)NC1=O [Compound 59, Oxazole-2-carbonyl-D-Val-Phe(2-Cbm)-c(Cys-Orn(iPr)-Asp-Val-Gly-Dhp-4Aph-Cys)-3Pal-NH2] (Oxazole2carbonyl-[dV][Phe(2-CONH2)]C[Orn(iPr)]DVG[ΔPro][Phe(4-NH2)]C[3Pal]-NH2; disulfide 3-10) | 100 | 99 | 0.17 | 467 | 2770 |
| CC(C)[C@@H]1NC(=O)[C@H](CC(=O)O)NC(=O)[C@H](CCCNC(=N)N)NC(=O)[C@@H](NC(=O)[C@H](Cc2ccccc2C(N)=O)NC(=O)[C@H](NC(=O)c2ccncn2)C(C)C)CSSC[C@@H](C(=O)N[C@@H](Cc2cccnc2)C(N)=O)NC(=O)[C@H](Cc2cccc(CN)c2)NC(=O)[C@@H]2C=CCN2C(=O)CNC1=O [Compound 31, Pyrimidine-4-carbonyl-D-Val-Phe(2-Cbm)-c(Cys-Arg-Asp-Val-Gly-Dhp-Phe(3-CH2NH2)-Cys)-3Pal-NH2] (X6-[dV][Phe(2-CONH2)]CRDVG[ΔPro][Phe(3-CH2NH2)]C[3Pal]-NH2; disulfide 3-10) | 100 | 100 | 0.12 | 46 | 390 |
| CC(C)[C@@H]1NC(=O)[C@H](CC(=O)O)NC(=O)[C@H](CCCNC(=N)N)NC(=O)[C@@H](NC(=O)[C@H](Cc2ccc(O)cc2)NC(=O)[C@H](NC(=O)c2ccc(F)cc2)C(C)C)CSSC[C@@H](C(=O)N[C@@H](Cc2cccnc2)C(N)=O)NC(=O)[C@H](Cc2cccc(CN)c2)NC(=O)[C@@H]2CCCN2C(=O)CNC1=O [Compound 5, Bz(4-F)-D-Val-Tyr-c(Cys-Arg-Asp-Val-Gly-Pro-Phe(3-CH2NH2)-Cys)-3Pal-NH2] ({Benzoyl(4-F)}-[dV]YCRDVGP[Phe(3-CH2NH2)]C[3Pal]-NH2; disulfide 3-10) | 100 | 99 | 0.13 | 26 | 192 |
| CC(C)NCCC[C@@H]1NC(=O)[C@@H](NC(=O)[C@H](Cc2ccccc2C(N)=O)NC(=O)[C@H](NC(=O)c2ccccn2)C(C)C)CSSC[C@@H](C(=O)N[C@@H](Cc2cccnc2)C(N)=O)NC(=O)[C@H](Cc2cccc(CN)c2)NC(=O)[C@@H]2C=CCN2C(=O)CNC(=O)[C@H](C(C)C)NC(=O)[C@H](CC(=O)O)NC1=O [Compound 54, Picolinoyl-D-Val-Phe(2-Cbm)-c(Cys-Orn(iPr)-Asp-Val-Gly-Dhp-Phe(3-CH2NH2)-Cys)-3Pal-NH2] (Picolinoyl-[dV][Phe(2-CONH2)]C[Orn(iPr)]DVG[ΔPro][Phe(3-CH2NH2)]C[3Pal]-NH2; disulfide 3-10) | 100 | 99 | 0.17 | 150 | 898 |
